Patent publication US20110294721A1, “ANTIMICROBIAL PEPTIDES” (priority 2008, published 2011)
Where two headings read alike, the source gives them in different places. No end group written: not given here.

Key:
[1] = system: Pseudomonas syringae pv. syringae
[2] = system: Botrytis cinerea; assay: MIC in-vitro inhibition assay, antifungal (Example 2); type: cell-based; settings: complete inhibition of spore germination/mycelial growth; Table 1
Procedure: (§1) In-vitro inhibition assays were performed in sterile flat-bottom 96-well plates (Greiner bio-one, Frickenhausen). Antimicrobial peptides were dissolved in 0.01% acetic acid containing 0.2% BSA (500 μg/ml), filter sterilized and stored at −20° C. For inhibition assays dilutions of peptides ranging from 5 to 200 μg/ml were prepared and 10 μl (antibacterial assay) or 20 μl (antifungal assay) of each concentration was loaded per well.
(§2) Spores of fungi were collected by water washes of sporulating cultures grown on 2% malt extract agar and spore concentration was determined by microscopy. The concentration of the spores was adjusted to 1.5-2×10^3 spores/ml in 2% malt extract medium and 80 μl of fungal spores were added per well. The final peptide concentrations used in the fungal inhibition assays were 0, 2, 4, 10, 20, 40, and 100 μg/ml. After overnight incubation at room temperature the plate were put on a rotary shaker (300 rpm) for further two days to ensure consistantly growth. Antifungal effects of the peptides were determined by a microplate reader (Altemaria, Fusarium) at OD590 nm or by visual screening of the plates (Bottytis, Cladosporium).
(§3) The lowest peptide concentration leading to complete inhibition of bacterial growth or spore germination/mycelial growth (minimal inhibition concentration, MIC) was determined for each organism-peptide combination. For each peptide concentration two identical inhibition assays were performed.

[3] = system: Cladosporium herbarum; assay: as above; type: cell-based; settings: complete inhibition of spore germination/mycelial growth; Table 1
Procedure: as §1, §2, §3

[4] = system: Alternaria alternata; assay: as above; type: cell-based; settings: complete inhibition of spore germination/mycelial growth; Table 1
Procedure: as §1, §2, §3

[5] = system: Pectobacterium carotovorum sub. carotovorum
[6] = system: Pseudomonas syringae pv. tomato
[7] = system: Pseudomonas corrugata
[8] = system: Xanthomonas vesicatoria
[9] = system: Pseudomonas syringae pv. tomato; assay: MIC and lethal concentration (LC) assay (Example 3); type: cell-based; settings: Table 2; for LC (lethal concentration): 100% inhibition after at least 4 days of incubation; for MIC: >90% inhibition, 1-2 days at 25° C.
Procedure: as §1
(§4) Bacteria colonies from overnight agar plate cultures were resuspended into 5 ml LB-medium or HPG-medium (OD600 nm=0.08-0.1) and diluted into LB-medium/HPG-medium (1:100). 90 μl of this suspension containing about 10^5-10^6 CFU/ml of tested bacteria were added to each well resulting in final peptide concentrations of 0, 0.5, 1, 2, 5, 10, and 20 μg/ml. […] The lowest concentration, in which there is no observable growth (>90% inhibition) is referred to as minimal inhibitory concentration (MIC). […] For each peptide concentration two identical inhibition assays were performed.

[10] = system: Clavibacter michiganensis; assay: as above; type: cell-based; settings: Table 2; for LC (lethal concentration): 100% inhibition after at least 4 days of incubation; for MIC: >90% inhibition, 1-2 days at 25° C.
Procedure: as §1, §4

[11] = system: Pectobacterium carotovorum; assay: as above; type: cell-based; settings: Table 2; for LC (lethal concentration): 100% inhibition after at least 4 days of incubation; for MIC: >90% inhibition, 1-2 days at 25° C.
Procedure: as §1, §4

[12] = system: Xanthomonas vesicatoria; assay: as above; type: cell-based; settings: Table 2; for LC (lethal concentration): 100% inhibition after at least 4 days of incubation; for MIC: >90% inhibition, 1-2 days at 25° C.
Procedure: as §1, §4

[13] = system: Pseudomonas syringae pv. syringae; assay: as above; type: cell-based; settings: Table 2; for LC (lethal concentration): 100% inhibition after at least 4 days of incubation; for MIC: >90% inhibition, 1-2 days at 25° C.
Procedure: as §1, §4

[14] = system: HeLa cells (LC5-RIC); type: cell-based, human
Procedure: (§5) Antimicrobial oligopeptides were dissolved in 0.01% acetic acid containing 0.2% BSA (500 μg/ml), filter sterilized and stored at −20° C. […] (in 5% CO2). Afterwards, virus particles were added to the pre-treated HeLa cells and the infection was quantified by measuring red fluorescence with a fluorescence microplate reader after 72 h incubation. The viability of the HeLa cells was determined by measuring the activity of the mitochondrial dehydrogenase according to Lindl and Bauer (1994) and Mosmann (1983).

[15] = system: Pseudomonas corrugata; settings: Table 2; for LC (lethal concentration): 100% inhibition after at least 4 days of incubation; for MIC: >90% inhibition, 1-2 days at 25° C.
Procedure: as §1, §4

[16] = system: human immundeficiency virus (HIV); type: cell-based; settings: HeLa cells pre-treated 30 min at 37° C.; red fluorescence after 72 h; read-out: IC50, concentration where the infection is decreased by 50% (compared to non-treated controls)
Procedure: Cells were pretreated with 6.3 μg/ml SP13-3 and SP13-14 or buffer for 30 min at 37° C. before addition of virus particles. […] Shown is an overlay of pictures taken under transmitted light and fluorescence after 72 hours incubation. The viability of the HeLa cells was determined by measuring the activity of the mitochondrial dehydrogenase.
To measure the activity of the designed oligopeptides against human immundeficiency virus (HIV) a fluorescence-based reporter system was used. HeLa cells (LC5-RIC) harbour a reporter gene, which regulates in dependency of HIV Rev and Tat proteins the synthesis of a red fluorescing protein. In this way the infection of the HeLa cells (LC5-RIC) is indicated and the infection rate can be quantified using a fluorescence microplate reader.
as §5

[17] = system: Clavibacter michiganensis sub. michiganensis; settings: complete inhibition of bacterial growth; overnight 25° C.; Table 1
[18] = system: Xylella fastidiosa; settings: reported by Kuzina et al (2006); cited from earlier work
[19] = complete inhibition of bacterial growth, overnight 25° C., Table 1

Substance	Minimal inhibition concentration (MIC) [2] [µg/mL]	Minimal inhibition concentration (MIC) [3] [µg/mL]	Minimal inhibition concentration (MIC) [4] [µg/mL]	LC (lethal concentration) [9]	MIC [9]	LC (lethal concentration) [10]	MIC [10]	LC (lethal concentration) [11]	MIC [11]	LC (lethal concentration) [12] [µg/mL]	MIC [12] [µg/mL]	LC (lethal concentration) [13]	MIC [13]	negative/toxic effect on test cells (HeLa cells) [14]	LC (lethal concentration) [15]	MIC [15]	IC50 [16] [nM]	further results
KRKLIFLAAFLAALALFKKR-NH2 [SP15]	>100	40	>100	–	–	–	–	–	–	–	–	–	–	–	–	–	–	Minimal inhibition concentration (MIC) [1, 19]: >40 µg/mL; Minimal inhibition concentration (MIC) [5, 19]: >40 µg/mL; Minimal inhibition concentration (MIC) [6, 19]: 40 µg/mL; Minimal inhibition concentration (MIC) [7, 19]: >40 µg/mL; Minimal inhibition concentration (MIC) [8, 19]: 20 µg/mL
KRRKLAFRLFRLFLKLVLKK-NH2 [SP13-14]	–	–	–	5.0 µg/mL	2.5 µg/mL	2 to 5 µg/mL	0.5 µg/mL	>10/>10 μg/ml	>10/>10 μg/ml	2.5	0.25	10 µg/mL	5.0 µg/mL	No negative/toxic effect	> 10 µg/mL	2.5 µg/mL	1200	–
KRRLALFRLFRLALKLVLKK-NH2 [SP13-11]	–	–	–	5.0 µg/mL	2.5 µg/mL	2.5/2.5 μg/ml	2.5/2.5 μg/ml	>10/>10 μg/ml	>10/>10 μg/ml	5.0	2.5	>10/>10 μg/ml	>10/>10 μg/ml	No negative/toxic effect	>10/>10 μg/ml	>10/>10 μg/ml	2100	–
KRRLIARILRLAARALVKKR (also: D-amino acids at unstated positions) [SP13-D]	>40	5	20	–	–	–	–	–	–	–	–	–	–	–	–	–	–	Minimal inhibition concentration (MIC) [1, 19]: 2.5 µg/mL; Minimal inhibition concentration (MIC) [17]: 10 µg/mL; Minimal inhibition concentration (MIC) [5, 19]: >40 µg/mL; Minimal inhibition concentration (MIC) [6, 19]: 1 µg/mL; Minimal inhibition concentration (MIC) [7, 19]: 40 µg/mL; Minimal inhibition concentration (MIC) [8, 19]: 2 µg/mL
KRRLIARILRLAARALVKKR-NH2 [SP13]	>100	20	>100	5.0/5.0 μg/ml	5.0/5.0 μg/ml	1.0 µg/mL	0.25 µg/mL	10/>10 μg/ml	10/>10 μg/ml	0.5	0.1	0.5/0.5 μg/ml	0.5/0.5 μg/ml	–	1.0 µg/mL	0.25 µg/mL	–	Minimal inhibition concentration (MIC) [1]: 10 µg/mL; Minimal inhibition concentration (MIC) [17]: 2.5 µg/mL; Minimal inhibition concentration (MIC) [5]: >40 µg/mL; Minimal inhibition concentration (MIC) [6]: 20 µg/mL; Minimal inhibition concentration (MIC) [7]: 2.5 µg/mL; Minimal inhibition concentration (MIC) [8]: 2.5 µg/mL
KRRLILRILRLAIRILVKKR-NH2 [SP13-3]	–	–	–	10/10 μg/ml	10/10 μg/ml	10 µg/mL	2.5 µg/mL	>10/>10 μg/ml	>10/>10 μg/ml	10	2.5	>10/>10 μg/ml	>10/>10 μg/ml	No negative/toxic effect	>10/>10 μg/ml	>10/>10 μg/ml	2100	–
Magainin-2	–	–	–	–	–	–	–	–	–	–	–	–	–	–	–	–	–	activity against Xylella fastidiosa [18]: active
